# pIC50: −log10 of the molar value.
# Biological target: human recombinant GPR65 (Homo sapiens, UniProt Q8IYL9)
# Assay: Human GPR65 cAMP HTRF antagonist assay
# Type: cell-based
# Outline: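 1321N1 astrocytoma cells stably expressing hrGPR65, with IBMX and EDTA, were preincubated with compound 30 min at room temperature, then acid-activated at assay pH 7.2 (control pH 7.9) for 30 min. cAMP read by HTRF (665/620 nm ratio); IC50 from 4-parameter fit normalised to high/low controls.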
# Sequence of human recombinant GPR65 (Q8IYL9 whole entry): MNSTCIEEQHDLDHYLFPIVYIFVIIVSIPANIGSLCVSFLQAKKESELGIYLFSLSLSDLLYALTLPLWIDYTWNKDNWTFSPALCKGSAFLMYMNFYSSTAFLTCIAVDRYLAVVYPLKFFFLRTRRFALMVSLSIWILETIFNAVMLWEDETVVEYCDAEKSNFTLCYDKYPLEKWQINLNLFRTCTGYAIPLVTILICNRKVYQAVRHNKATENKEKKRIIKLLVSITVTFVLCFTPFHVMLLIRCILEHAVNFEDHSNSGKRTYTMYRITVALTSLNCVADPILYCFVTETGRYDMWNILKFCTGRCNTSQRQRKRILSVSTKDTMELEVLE
row,Structure (SMILES),pIC50
1,"O=C(Nc1cc(Cl)c(-c2ccc(OC3CC3)nc2)cc1F)N1[C@H]2CC[C@@H]1c1c[nH]c(=O)cc1C2 [Compound 222, (6S,9R)-N-(5-Chloro-4-(6-cyclopropoxypyridin-3-yl)-2-fluorophenyl)-3-oxo-3,5,6,7,8,9-hexahydro-2H-6,9-epiminocyclohepta[c]pyridine-10-carboxamide]",> 6.30
2,"O=C(Nc1cc(F)c(-c2ccc(C(F)(F)F)nc2)cc1F)N1[C@H]2CC[C@@H]1c1ccnc(F)c1C2 [Compound 223, (5R,8S)-N-(2,5-Difluoro-4-(6-(trifluoromethyl)pyridin-3-yl)phenyl)-1-fluoro-6,7,8,9-tetrahydro-5H-5,8-epiminocyclohepta[c]pyridine-10-carboxamide]",> 6.30
3,"O=C(Nc1cc(Cl)c(F)cc1Oc1ccc2nonc2c1)N1[C@H]2CC[C@@H]1c1n[nH]c(=O)cc1C2 [Compound 224, (6S,9R)-N-(2-(Benzo[c][1,2,5]oxadiazol-5-yloxy)-5-chloro-4-fluorophenyl)-3-oxo-3,5,6,7,8,9-hexahydro-2H-6,9-epiminocyclohepta[c]pyridazine-10-carboxamide]",5.30 to 6.30
4,"O=C(Nc1cc(Cl)c(Oc2ccc(F)nc2)cc1F)N1[C@H]2CC[C@@H]1c1n[nH]c(=O)cc1C2 [Compound 225, (6S,9R)—N-(5-Chloro-2-fluoro-4-((6-fluoropyridin-3-yl)oxy)phenyl)-3-oxo-3,5,6,7,8,9-hexahydro-2H-6,9-epiminocyclohepta[c]pyridazine-10-carboxamide]",> 6.30
5,"O=C(Nc1cc(Cl)c(C(F)(F)F)cc1F)N1[C@@H]2CC[C@H]1C(F)(F)c1c2ccnc1F [Compound 227, (5R,8S)-N-(5-Chloro-2-fluoro-4-(trifluoromethyl)phenyl)-1,9,9-trifluoro-6,7,8,9-tetrahydro-5H-5,8-epiminocyclohepta[c]pyridine-10-carboxamide]",> 6.30
6,"O=C(Nc1cc(Cl)c(C(F)(F)F)cc1F)N1[C@H]2CC[C@@H]1C(F)(F)c1c2ccnc1F [Compound 228, (5S,8R)-N-(5-Chloro-2-fluoro-4-(trifluoromethyl)phenyl)-1,9,9-trifluoro-6,7,8,9-tetrahydro-5H-5,8-epiminocyclohepta[c]pyridine-10-carboxamide]",5.30 to 6.30
7,"O=C(Nc1cc(Cl)c(-c2cncc(F)c2)cn1)N1[C@H]2CC[C@@H]1c1n[nH]c(=O)cc1C2 [Compound 229, (6S,9R)-N-(4-Chloro-5′-fluoro-[3,3′-bipyridin]-6-yl)-3-oxo-3,5,6,7,8,9-hexahydro-2H-6,9-epiminocyclohepta[c]pyridazine-10-carboxamide]",> 6.30
8,"O=C(Nc1cc(Cl)c(-c2ccc(F)nc2)cn1)N1[C@H]2CC[C@@H]1c1n[nH]c(=O)cc1C2 [Compound 230, (6S,9R)-N-(4-Chloro-6′-fluoro-[3,3′-bipyridin]-6-yl)-3-oxo-3,5,6,7,8,9-hexahydro-2H-6,9-epiminocyclohepta[c]pyridazine-10-carboxamide]",> 6.30
9,"O=C(Nc1ccccc1)c1cc(F)c(NC(=O)N2[C@H]3CC[C@@H]2c2n[nH]c(=O)cc2C3)cc1Cl [Compound 231, (6S,9R)—N-(5-Chloro-2-fluoro-4-(phenylcarbamoyl)phenyl)-3-oxo-3,5,6,7,8,9-hexahydro-2H-6,9-epiminocyclohepta[c]pyridazine-10-carboxamide]",5.30 to 6.30
10,"Cc1nc2cc(-c3cc(F)c(NC(=O)N4[C@H]5CC[C@@H]4c4c[nH]c(=O)cc4C5)cc3Cl)ccc2o1 [Compound 232, (6S,9R)-N-(5-Chloro-2-fluoro-4-(2-methylbenzo[d]oxazol-5-yl)phenyl)-3-oxo-3,5,6,7,8,9-hexahydro-2H-6,9-epiminocyclohepta[c]pyridine-10-carboxamide]",> 6.30
11,"Cc1nc2cc(-c3cc(F)c(NC(=O)N4[C@H]5CC[C@@H]4c4ccnc(F)c4C5)cc3Cl)ccc2o1 [Compound 233, (5R,8S)-N-(5-Chloro-2-fluoro-4-(2-methylbenzo[d]oxazol-5-yl)phenyl)-1-fluoro-6,7,8,9-tetrahydro-5H-5,8-epiminocyclohepta[c]pyridine-10-carboxamide]",> 6.30
12,"Cc1nc2cc(-c3cc(F)c(NC(=O)N4[C@H]5CC[C@@H]4c4n[nH]c(=O)cc4C5)cc3Cl)ccc2o1 [Compound 234, (6S,9R)-N-(5-Chloro-2-fluoro-4-(2-methylbenzo[d]oxazol-5-yl)phenyl)-3-oxo-3,5,6,7,8,9-hexahydro-2H-6,9-epiminocyclohepta[c]pyridazine-10-carboxamide]",> 6.30
13,"O=C(Nc1cc(Cl)c(COc2ccccc2)cc1F)N1[C@H]2CC[C@@H]1c1n[nH]c(=O)cc1C2 [Compound 235, (6S,9R)-N-(5-Chloro-2-fluoro-4-(phenoxymethyl)phenyl)-3-oxo-3,5,6,7,8,9-hexahydro-2H-6,9-epiminocyclohepta[c]pyridazine-10-carboxamide]",> 6.30
14,"O=C(Nc1cc(F)c(NC(=O)N2[C@H]3CC[C@@H]2c2n[nH]c(=O)cc2C3)cc1Cl)c1ccccc1 [Compound 236, (6S,9R)—N-(4-benzamido-5-chloro-2-fluorophenyl)-3-oxo-3,5,6,7,8,9-hexahydro-2H-6,9-epiminocyclohepta[c]pyridazine-10-carboxamide]",5.30 to 6.30
15,"O=C(Nc1cc(Cl)c(OCc2ccccc2)cc1F)N1[C@H]2CC[C@@H]1c1n[nH]c(=O)cc1C2 [Compound 237, (6S,9R)-N-(4-(Benzyloxy)-5-chloro-2-fluorophenyl)-3-oxo-3,5,6,7,8,9-hexahydro-2H-6,9-epiminocyclohepta[c]pyridazine-10-carboxamide]",> 6.30
16,"O=C(Nc1cc(Cl)c(-c2ccc3nonc3c2)cn1)N1[C@H]2CC[C@@H]1c1n[nH]c(=O)cc1C2 [Compound 238, (6S,9R)-N-(5-(Benzo[c][1,2,5]oxadiazol-5-yl)-4-chloropyridin-2-yl)-3-oxo-3,5,6,7,8,9-hexahydro-2H-6,9-epiminocyclohepta[c]pyridazine-10-carboxamide]",> 6.30
17,"O=C(Nc1cc(Cl)c(-c2ccc(OC3CCC3)nc2)cc1F)N1[C@H]2CC[C@@H]1c1c[nH]c(=O)cc1C2 [Compound 239, (6S,9R)-N-(5-Chloro-4-(6-cyclobutoxypyridin-3-yl)-2-fluorophenyl)-3-oxo-3,5,6,7,8,9-hexahydro-2H-6,9-epiminocyclohepta[c]pyridine-10-carboxamide]",> 6.30
18,"O=C(Nc1cc(Cl)c(-c2ccc(OCC(F)(F)F)nc2)cc1F)N1[C@H]2CC[C@@H]1c1ccnc(F)c1C2 [Compound 240, (5R,8S)-N-(5-Chloro-2-fluoro-4-(6-(2,2,2-trifluoroethoxy)pyridin-3-yl)phenyl)-1-fluoro-6,7,8,9-tetrahydro-5H-5,8-epiminocyclohepta[c]pyridine-10-carboxamide]",> 6.30
19,"O=C(Nc1cc(Cl)c(-c2ccc(OCC(F)(F)F)nc2)cc1F)N1[C@H]2CC[C@@H]1c1c[nH]c(=O)cc1C2 [Compound 241, (6S,9R)-N-(5-Chloro-2-fluoro-4-(6-(2,2,2-trifluoroethoxy)pyridin-3-yl)phenyl)-3-oxo-3,5,6,7,8,9-hexahydro-2H-6,9-epiminocyclohepta[c]pyridine-10-carboxamide]",> 6.30
20,"O=C(Nc1cc(F)c(-c2ccc(F)nc2)cc1F)N1[C@H]2CC[C@@H]1c1ccnc(F)c1C2 [Compound 242, (5R,8S)-N-(2,5-Difluoro-4-(6-fluoropyridin-3-yl)phenyl)-1-fluoro-6,7,8,9-tetrahydro-5H-5,8-epiminocyclohepta[c]pyridine-10-carboxamide]",> 6.30
21,"O=C(Nc1cc(F)c(-c2ccc(F)nc2)cc1F)N1[C@H]2CC[C@@H]1c1c[nH]c(=O)cc1C2 [Compound 243, (6S,9R)-N-(2,5-Difluoro-4-(6-fluoropyridin-3-yl)phenyl)-3-oxo-3,5,6,7,8,9-hexahydro-2H-6,9-epiminocyclohepta[c]pyridine-10-carboxamide]",> 6.30
22,"O=C(Nc1cc(F)c(-c2ccc(F)nc2)cc1F)N1[C@H]2CC[C@@H]1c1n[nH]c(=O)cc1C2 [Compound 244, (6S,9R)-N-(2,5-Difluoro-4-(6-fluoropyridin-3-yl)phenyl)-3-oxo-3,5,6,7,8,9-hexahydro-2H-6,9-epiminocyclohepta[c]pyridazine-10-carboxamide]",> 6.30
23,"COc1ccc(-c2cc(F)c(NC(=O)N3[C@H]4CC[C@@H]3c3ccnc(F)c3C4)cc2F)cn1 [Compound 245, (5R,8S)-N-(2,5-Difluoro-4-(6-methoxypyridin-3-yl)phenyl)-1-fluoro-6,7,8,9-tetrahydro-5H-5,8-epiminocyclohepta[c]pyridine-10-carboxamide]",> 6.30
24,"COc1ccc(-c2cc(F)c(NC(=O)N3[C@H]4CC[C@@H]3c3c[nH]c(=O)cc3C4)cc2F)cn1 [Compound 246, (6S,9R)-N-(2,5-Difluoro-4-(6-methoxypyridin-3-yl)phenyl)-3-oxo-3,5,6,7,8,9-hexahydro-2H-6,9-epiminocyclohepta[c]pyridine-10-carboxamide]",> 6.30
25,"COc1ccc(-c2cc(F)c(NC(=O)N3[C@H]4CC[C@@H]3c3n[nH]c(=O)cc3C4)cc2F)cn1 [Compound 247, (6S,9R)-N-(2,5-Difluoro-4-(6-methoxypyridin-3-yl)phenyl)-3-oxo-3,5,6,7,8,9-hexahydro-2H-6,9-epiminocyclohepta[c]pyridazine-10-carboxamide]",> 6.30
26,"COc1cncc(-c2cc(F)c(NC(=O)N3[C@H]4CC[C@@H]3c3ccnc(F)c3C4)cc2Cl)c1 [Compound 248, (5R,8S)-N-(5-Chloro-2-fluoro-4-(5-methoxypyridin-3-yl)phenyl)-1-fluoro-6,7,8,9-tetrahydro-5H-5,8-epiminocyclohepta[c]pyridine-10-carboxamide]",> 6.30
27,"COc1cncc(-c2cc(F)c(NC(=O)N3[C@H]4CC[C@@H]3c3c[nH]c(=O)cc3C4)cc2Cl)c1 [Compound 249, (6S,9R)-N-(5-Chloro-2-fluoro-4-(5-methoxypyridin-3-yl)phenyl)-3-oxo-3,5,6,7,8,9-hexahydro-2H-6,9-epiminocyclohepta[c]pyridine-10-carboxamide]",> 6.30

# Source: patent US20240368173A1, “TRICYCLIC GPR65 MODULATORS” (PATHIOS THERAPEUTICS LIMITED, priority 2021, published 2024)
